Measurements from patent US20040014726A1, “Method for the preparation of a pharmaceutical composition, and its use” (priority 2000, published 2004).

Legend:
isolated rat osteoclasts = experiment: Rat osteoclast culture on bovine bone slices; format: cell-based
Experimental: Osteoclasts can be isolated from long bones of several species and they are cultured on bone or dentine slices to study their resorption activity (Boyde et al. 1984, Chambers et al 1984). Mostly, either rat or rabbit osteoclasts are used. They are isolated from new-born animals and cultured for 1-2 days. The resorption activity is determined either by counting the number of resorption pits on bone/dentine slices or the total resorption area is measured using a phase contrast microscope and image analysis system. We are routinely using isolated rat osteoclasts and we culture them on bovine bone slices for two days, after which we fix the cells. Cells are stained with toluidine blue and counted under the microscope (Arnett and Dempster 1987, Lakkakorpi et al. 1989). Then the cells are removed by brushing them and the resorption pits are stained with WGA lectin, which binds to resorption lacuna in the bone slice. The number and area of pits are quantified (Selander et al. 1994).
(§1) The concentration range of the test compound in these assays was 10^−10-10^−5 M.

[1] = system: bone metastases of human breast cancer cells in the mouse; experiment: Metastasis model in mouse (human breast cancer cells, osteolytic bone lesions); format: in vivo; conditions: 50 mg/kg/day s.c. for 10 days
Experimental: The effect of the test compound has been tested in a metastasis model in the mouse. 14 days after inoculation with human breast cancer cells, when the radiologically detected osteolytic bone lesions were found, the animals were treated either with PBS (control) or the test compound (50 mg/kg/day, s.c.) for 10 days. At the end of the study, osteoclast number and bone area were measured histomorphometrically.

ovariectomized rats = experiment: Tests on ovariectomized rats (pQCT and bone strength); format: in vivo, rat; conditions: 12 weeks
Experimental: The activity of [[(3-hydroxy-2-pyridyl)amino]methylidene]bisphosphonic acid tetraethylester (TC) has been tested in ovariectornized rats. In the said tests, the compound to be tested was administered to six-month old rats. The control rats were sham-operated or overiectomized and given vehicle. The compound was given to ovariectomized rats orally 7 days a week for 12 weeks beginning immediately after the surgery. The doses were 10, 50 and 100 mg/kg/day. At the end of the study, the mineral density and the geometry of the bone was measured with pQCT (peripheral quantitative computed tomography). The strength of the bone was measured with electromechanical materials testing machine. The sites of measurement were the proximal end of the tibia (not strength), the lumbar vertebra, the femoral neck and the tibial mid-diaphysis. The parameters to be measured were the bone density of the trabecular or cortical bone, the cortical area and strength of the bone.

[2] = system: mouse osteoprogenitor cells (preosteoblasts) supporting osteoclast formation; experiment: Mouse spleen cell/osteoblast co-culture with pre-treated osteoprogenitor cells; format: cell-based; conditions: osteoprogenitor cells incubated with 10^-5 M for 24 h, then co-culture with spleen cells; data not shown
Text: Bone marrow stromal cells have long been known as a source of osteoprogenitor cells (Owen and Friedenstein 1988). […] These preosteoblasts can be further induced to form active osteoblasts by continuing the cultures for two more weeks in the presence of estrogen (17β-estradiol). During this culture period cells begin to express increasing levels of osteoblast markers, such as alkaline phosphatase, type I collagen and osteocalcin, and finally they are able to form bone. Bone formation is detected by bone nodule formation and calcium deposition in the cultures (Qu et al. 1998).
A co-culture system was developed, which contains mouse spleen cells and primary mouse osteoprogenitor cells. Osteoprogenitor cells were prepared from mouse marrow as described in section C.
When these two cell types were cultured in the presence of 1,25(OH)2D3, several osteoclasts were formed. Spleen cells alone with 1,25(OH)2D3 were not able to differentiate into osteoclasts. Mouse osteoprogenitor cells, which were able to support osteoclast formation, were incubated first with 10^−5 M of the said test compound for 24 h and then these cells were used in the co-culture with mouse spleen cells. […] This further supports the idea, that the test compound has direct inhibitory effect on osteoclast precursors.

[3] = system: osteoclast formation in spleen cell culture; experiment: Mouse spleen cell culture, osteoclast formation; format: cell-based
Text: as §1

[4] = system: osteoclast formation in mouse bone marrow culture; experiment: Mouse bone marrow culture, osteoclast formation (TRAP-positive multinucleated cells); format: cell-based
Experimental: This culture system is the most used method to study osteoclast differentiation (Takahashi et al. 1988a). Mouse marrow cells can be induced to form active osteoclasts in 6-8 days in the presence of an osteotropic factor, such as 1,25(OH)2D3, parathyroid hormone, interleukin-1 or prostaglandin E2 (Takahashi et al. 1988b, Shinar et al. 1990, Collins and Chambers 1992, Jimi et al. 1999). Typically, 10^6 cells are cultured/ml of media for 6 days. Then, the cells are fixed with 3% paraformaldehyde in PBS and stained for osteoclast marker, such as tartrate-resistant acid phosphatase (TRAP). Sigma's immunohistochemical kit can be used. Multinucleated, TRAP-positive cells containing at least 3 nuclei are counted as osteoclasts (Hentunen et al. 1998).
as §1

CCOP(=O)(OCC)C(Nc1ncccc1O)P(=O)(OCC)OCC [test compound, [[(3-hydroxy-2-pyridinyl)amino]methylidene]bisphosphonic acid tetraethylester]
osteoclast-mediated bone resorption (isolated rat osteoclasts; data not shown): did not have any effect
osteoclast apoptosis (isolated rat osteoclasts; osteoclasts cultured for 1-2 days on bovine bone slices): did not have any effect
tumor induced decrease in bone area at the site of metastases [1]: inhibited
number of osteoclasts at the tumor-bone interface ([1]; compared to PBS control): decreased significantly
change in the cortical area in the femoral neck caused by ovariectomy (ovariectomized rats; 50 mg/kg/day oral): inhibited the change
strength of the tibial mid-diaphysis (ovariectomized rats; 50 mg/kg/day oral): improved, although not to a significantly meaningful degree
cortical area in the tibial mid-diaphysis (ovariectomized rats; 50 mg/kg/day oral, compared to a normal rat and an ovariectomized rat): increase of the cortical area
change in the trabecular density in the femoral neck caused by ovariectomy (ovariectomized rats; 100 mg/kg/day oral): inhibited the change
area of the cortical bone in the lumbar vertebra, reduction by ovariectomy (ovariectomized rats; 50 and 100 mg/kg/day oral): inhibit these changes
density of the trabecular bone in the lumbar vertebra, reduction by ovariectomy (ovariectomized rats; 50 and 100 mg/kg/day oral): inhibit these changes
strength of the cortical bone in the lumbar vertebra, reduction by ovariectomy (ovariectomized rats; 50 and 100 mg/kg/day oral): inhibit these changes
thickness of the cortical bone (pQCT), reduction caused by ovariectomy (ovariectomized rats; oral, FIG. 5 lower row): can be inhibited
support of osteoclast formation by treated preosteoblasts [2]: supported osteoclast formation in the similar manner as non-treated preosteoblasts
inhibition at 1 µM ([3]; Mus musculus, Osteoclast, at 10^-6 M concentration): 60%
TRAP-positive MNC formation ([3]; at 10^-5 M): completely blocked
osteoclast-like cell formation (TRAP-positive MNC or mononuclear cells) ([3]; at 10^-5 M, data not shown): totally blocked
inhibition of osteoclast formation ([3]; compound present on days 4-6): approximately 40%
inhibition of osteoclast formation ([3]; compound present only at days 1-3): more than 60%
osteoclast formation in spleen cell culture ([3]; concentration range 10^-10-10^-5 M): dose dependently inhibited
inhibition at 1 µM ([4]; Mus musculus, Osteoclast, at 10^-6 M): 60%
TRAP-positive MNC formation ([4]; at 10^-5 M): inhibit completely
toxic effect on other cells ([4]; at 10^-5 M): without having toxic effect on other cells
1,25(OH)2D3- and PTH-induced osteoclast formation ([4]; bone marrow culture, concentration range 10^-10-10^-5 M): dose dependently inhibited
